BindingDB's records for doi:10.1016/S0960-894X(97)10014-2 (1997)

Assays:
[1] = Inhibition of ADP induced platelet aggregation in human platelet-rich plasma (PRP).
[2] = Inhibition of ADP induced platelet aggregation in human platelet-rich plasma (PRP)

Row | Compound | IC50 [1] | IC50 [2]
1 | COc1ccc(C(CC(=O)O)N2CCc3cc(OCc4ccc(C(=N)N)cc4)ccc3C2=O)cc1 (stereo not drawn) [3-[6-(4-Carbamimidoyl-benzyloxy)-1-oxo-3,4-dihydro-1H-isoquinolin-2-yl]-3-(4-methoxy-phenyl)-propionic acid] | 260 nM | –
2 | CCC(CC(=O)O)N1CCc2cc(OCc3ccc(C(=N)N)cc3)ccc2C1=O (stereo not drawn) [3-[6-(4-Carbamimidoyl-benzyloxy)-1-oxo-3,4-dihydro-1H-isoquinolin-2-yl]-pentanoic acid] | 300 nM | –
3 | CCCCC(CC(=O)O)N1CCc2cc(OCc3ccc(C(=N)N)cc3)ccc2C1=O (stereo not drawn) [3-[6-(4-Carbamimidoyl-benzyloxy)-1-oxo-3,4-dihydro-1H-isoquinolin-2-yl]-heptanoic acid] | 600 nM | –
4 | CCOCCCC(CC(=O)O)N1CCc2cc(OCc3ccc(C(=N)N)cc3)ccc2C1=O (stereo not drawn) [3-[6-(4-Carbamimidoyl-benzyloxy)-1-oxo-3,4-dihydro-1H-isoquinolin-2-yl]-6-ethoxy-hexanoic acid] | 470 nM | –
5 | CCCCCC(CC(=O)O)N1CCc2cc(OCc3ccc(C(=N)N)cc3)ccc2C1=O (stereo not drawn) [3-[6-(4-Carbamimidoyl-benzyloxy)-1-oxo-3,4-dihydro-1H-isoquinolin-2-yl]-octanoic acid] | 570 nM | –
6 | CCCC(CC(=O)O)N1CCc2cc(OCc3ccc(C(=N)N)cc3)ccc2C1=O (stereo not drawn) [3-[6-(4-Carbamimidoyl-benzyloxy)-1-oxo-3,4-dihydro-1H-isoquinolin-2-yl]-hexanoic acid] | 230 nM | –
7 | COC(=O)c1ccc(C(CC(=O)O)N2CCc3cc(OCc4ccc(C(=N)N)cc4)ccc3C2=O)cc1 (stereo not drawn) [4-{1-[6-(4-Carbamimidoyl-benzyloxy)-1-oxo-3,4-dihydro-1H-isoquinolin-2-yl]-2-carboxy-ethyl}-benzoic acid methyl ester] | 220 nM | –
8 | COCCOCC(CC(=O)O)N1CCc2cc(OCc3ccc(C(=N)N)cc3)ccc2C1=O (stereo not drawn) [3-[6-(4-Carbamimidoyl-benzyloxy)-1-oxo-3,4-dihydro-1H-isoquinolin-2-yl]-4-(2-methoxy-ethoxy)-butyric acid] | 680 nM | –
9 | CCCCCCC(CC(=O)O)N1CCc2cc(OCc3ccc(C(=N)N)cc3)ccc2C1=O (stereo not drawn) [3-[6-(4-Carbamimidoyl-benzyloxy)-1-oxo-3,4-dihydro-1H-isoquinolin-2-yl]-nonanoic acid] | 3000 nM | –
10 | N=C(N)c1ccc(COc2ccc3c(c2)CCN(CCC(=O)O)C3=O)cc1 [3-[6-(4-Carbamimidoyl-benzyloxy)-1-oxo-3,4-dihydro-1H-isoquinolin-2-yl]-propionic acid] | – | 420 nM
11 | N=C(N)c1ccc(COc2ccc3c(c2)CCN(CC(=O)O)C3=O)cc1 [[6-(4-Carbamimidoyl-benzyloxy)-1-oxo-3,4-dihydro-1H-isoquinolin-2-yl]-acetic acid] | 30000 nM | –
12 | N=C(N)c1ccc(COc2ccc3c(c2)CCN(C(CC(=O)O)c2ccccc2)C3=O)cc1 (stereo not drawn) [3-[6-(4-Carbamimidoyl-benzyloxy)-1-oxo-3,4-dihydro-1H-isoquinolin-2-yl]-3-phenyl-propionic acid] | 200 nM | –
13 | COCCCC(CC(=O)O)N1CCc2cc(OCc3ccc(C(=N)N)cc3)ccc2C1=O (stereo not drawn) [3-[6-(4-Carbamimidoyl-benzyloxy)-1-oxo-3,4-dihydro-1H-isoquinolin-2-yl]-6-methoxy-hexanoic acid] | 600 nM | –
